Test results published in patent US12276670B2, “Methods for identifying and treating adrenomyeloneuropathy (AMN)” (The General Hospital Corporation, priority 2017, dated 2025).
Entries after “also recorded” stand apart in the source; their conditions may differ.

B1: MFGE8: milk fat globule EGF factor 8 protein, supplemented to microglia at 50 ng/ml (protein, UniProt Q08431 24-387, looked up)
Lactadherin: LDICSKNPCHNGGLCEEISQEVRGDVFPSYTCTCLKGYAGNHCETKCVEPLGLENGNIANSQIAASSVRVTFLGLQHWVPELARLNRAGMVNAWTPSSNDDNPWIQVNLLRRMWVTGVVTQGASRLASHEYLKAFKVAYSLNGHEFDFIHDVNKKHKEFVGNWNKNAVHVNLFETPVEAQYVRLYPTSCHTACTLRFELLGCELNGCANPLGLKNNSIPDKQITASSSYKTWGLHLFSWNPSYARLDKQGNFNAWVAGSYGNDQWLQVDLGSSKEVTGIITQGARNFGSVQFVASYKVAYSNDSANWTEYQDPRTGSSKIFPGNWDNHSHKKNLFETPILARYVRILPVAWHNRIALRLELLGC

Columns and labels:
[1] = test system: neurons differentiated from ReN cells; test: Cleaved-caspase and Tuj 1 staining after VLCFA treatment; type: cell-based, human; settings: for cleaved-caspase staining (late apoptosis): differentiated ReN neurons after FFA C26:0 or LPC C26:0 treatment
[2] = test system: neurons differentiated from ReN cells; test: PS exposure by Annexin V-FITC binding; type: cell-based, human; settings: treatment for 3 days at 10 μM or 20 μM
Method: The most significant biochemical change caused by ABCD1 mutations is increased VLCFA levels including free fatty acid and LPC (in particular C24:0 and C26:0) in plasma and tissues. In order to determine whether neurons exposed to high VLCFA levels have PS exposure on their surfaces, neurons differentiated from ReN cells were treated with both C26:0 free fatty acid (FFA C26:0) and LPC C26:0 and then determined the PS exposure by Annexin V-FITC binding. Immortalized hNPC cell line ReNcell VM (ReN) was used to differentiate into neurons according to a published protocol (Kim et al., 2015). Simply, ReN cells were grown in proliferation medium (DMEM/F12 (Gibco/Life Technologies) with 2 μg/ml heparin (stock, STEMCELL Technologies), 2% B27 (Life Technologies), 20 ng/ml EGF, 20 ng/ml bFGF and 1% of 100× penicillin/streptomycin (Gibco/Life Technologies) until confluency. For differentiation, 3×10^4 cells were seeded on matrigel-coated (1:100 dilution in DMEM/F12) 8 well chamber slides and grown in differentiation medium (DMEM/F12 (Gibco/Life Technologies) with 2 μg/ml heparin (stock, STEMCELL Technologies), 2% B27 (Life Technologies) and 1% of 100× penicillin/streptomycin (Gibco/Life Technologies) for 2-3 weeks prior to co-culture with microglia.

MFGE8 [3] = test: MFGE8 gene expression in N9 microglia; type: cell-based; settings: 30 uM, 3 days
Method: (§1) In order to learn whether microglial changes seen in vivo were primary or secondary to axon degeneration, microglia was isolated from postnatal mice and molecular changes in unstimulated conditions was assessed as well as after LPS challenge. Microglia cultures were prepared as previously described (Tamashiro et al., 2012). Briefly, mixed glial cultures (˜95% astrocytes, ˜5% microglia) were prepared from the brain tissue of 1-3 day old mice. The tissue was trypsinized with 0.05% trypsin, and the cells were resuspended in glia complete medium DMEM (Lonza) supplemented with 10% fetal bovine serum (FBS), 100 IU/ml penicillin, 100 μg/ml streptomycin and 2 mM L-Glutamine. After 10-14 days in culture, microglia were isolated from the mixed glial cultures by the shake-off procedure. Specifically, loosely attached microglia were obtained from an incubator shaker at 250 rpm for 2 h at 37° C., the cell-containing medium was centrifuged at 1100 rpm for 3 minutes to collect microglia for subsequent culture. N9 microglia cells were cultured in RPMI 1640 medium supplemented with 10% FBS.
After observing an unexpected increase of phagocytosis-related biomarkers at the tissue level, whether gene expression of these markers would be altered in vitro was examined. Total RNA from cells or tissues were isolated using Qiagen RNeasy Mini Kit (Qiagen). First-strand cDNA synthesis used 100 ng random primer (Life Technologies), […], 10 mM dNTP, and 200 units of reverse transcriptase (Life Technologies) per 20 μL reactions. PCRs were performed in duplicates in a 25 μl final volume by using SYBR Green master mix from Applied Biosystems (Life Technologies). The data was analyzed by calculating the delta Ct value between the tested gene and an internal control.
In order to examine whether VLCFA has any effect on MFGE8 expression, microglial cell lines (N9) were treated with 30 uM FFA C26:0, LPC C16:0 and LPC C26:0 separately for 3 days.

MFGE8 [4] = test: MFGE8 protein secretion in primary isolated microglia (ELISA); type: cell-based, mouse; settings: primary microglia from WT and Abcd1−/− mice, 15 uM
Method: as §1
An ELISA assay detected 2-fold higher MFGE8 protein secretion into media by Abcd1−/− microglia (FIG. 4D, P<0.05; MFGE8 and TNFa level in culture medium and spinal cord homogenate were measured using MFGE8 and TNFa ELISA kit (R&D) according to manufacturer's instructions). […]

MFGE8 [5] = test: MFGE8 gene expression in primary isolated microglia; type: cell-based, mouse; settings: primary microglia from WT and Abcd1−/− mice, 15 uM
Method: as §1
After observing an unexpected increase of phagocytosis-related biomarkers at the tissue level, whether gene expression of these markers would be altered in vitro was examined. […] The data was analyzed by calculating the delta Ct value between the tested gene and an internal control. […]

[6] = test system: differentiated ReN cells in the co-culture system with primary Abcd1−/− microglia; test: Co-culture of differentiated neurons with primary Abcd1−/− microglia; type: cell-based
Method: As a bridging protein, MFGE8 tightly binds to exposed phosphatidylserine on surface membranes of stressed neurons and opsonizes them for phagocytosis. Indeed, in co-culture, Abcd1−/− microglia increased phagocytosis of phosphatidylserine-exposing neurons in both unstimulated and LPS-challenged conditions (FIG. 4E). For the co-culture of microglia and neurons, isolated microglia were seeded on top of differentiated neurons and co-cultured for 4 days with or without supplementation of VLCFA. For VLCFA supplementation, hexacosanoic acid (FFA C26:0) and Lysophosphatidylcholine (LPC) C16:0 and C26:0 (Avanti polar lipid) were solubilized in 50 mg/ml Methyl-β-cyclodextrin to make 3 mM stock solution and then supplemented into culture medium to reach designated concentration with Methyl-β-cyclodextrin as vehicle control. […] Tuj-1 immunofluoresece and degenerated axons were quantified in each group.
The most significant biochemical change caused by ABCD1 mutations is increased VLCFA levels including free fatty acid and LPC (in particular C24:0 and C26:0) in plasma and tissues. In order to determine whether neurons exposed to high VLCFA levels have PS exposure on their surfaces, neurons differentiated from ReN cells were treated with both C26:0 free fatty acid (FFA C26:0) and LPC C26:0 and then determined the PS exposure by Annexin V-FITC binding. […]

[7] = test system: primary microglia from Abcd1−/− mice; test: Microglial phagocytosis assay (PS exposing SH-SY5Y neurons seeded on microglia); type: cell-based, mouse; settings: primary Abcd1−/− microglia pretreated 12 hours; MFGE8 at 50 ng/ml; 4 hours co-culture
Method: To validate the impact of MFGE8, primary microglia from Abcd1−/− mice were pretreated with either MFGE8 (50 ng/ml) or MFGE8 antibody for 12 hours and then phagocytosis was assessed by performing a microglial phagocytosis assay. Microglia were seeded in 8-well chamber (7×10^4/well in complete medium) and cultured for 24 hours. SH-SY5Y cells were treated with 100 uM H2O2 for 12 hours to induce phosphatidylserine (PS) exposure on cell surface. Floating SH-Sy5Y cells were then collected by centrifuge at 1000 g for 3 minutes, resuspended in serum free medium and stained with 3 μM CMTPX (red)(Life Science Technologies)(1:1000 dilution) for 30 minutes. A portion of the floating cells was subjected to Annexin V-FITC staining to confirm the exposure of phosphatidylserine. The remnant was washed twice and seeded (same amount as microglia) on top of the microglial layer. After 4 hours co-culture, cells were washed with PBS and fixed with 4% paraformaldehyde (PFA) for 15 min at room temperature. Microglia were then stained with IBA1 antibody (Wako) overnight followed by Alexa Fluor-488 conjugated second antibody. For quantification, 5 random images were taken from each chamber well using a confocal microscope (Zeiss). The total number of phagocytosed particles as well as cell-sized particles was counted and divided by microglia cell number.

Molecule	cleaved-caspase staining (late apoptosis) [1]	PS exposure on cell surface (Annexin V-FITC) [2]	MFGE8 mRNA expression (MFGE8 [3])	neuronal marker Tuj 1 morphology ([1]; differentiated ReN neurons after LPC C26:0 treatment)	MFGE8 expression at protein level (secretion) (MFGE8 [4])	MFGE8 expression at mRNA level (MFGE8 [5])	decrease of Tuj 1 expression ([6]; 15 uM LPC C26:0, co-culture 4 days)	axon degeneration (quantification of degenerated axons) ([6]; co-culture system with LPC C26:0 supplementation, with or without MFGE8 antibody)	microglial phagocytosis of PS exposing neurons [7]
CCCCCCCCCCCCCCCCCCCCCCCCCC(=O)O [FFA C26:0, hexacosanoic acid]	did not reveal a notable positive signal	did not induce significant PS exposure	did not have an effect						
CCCCCCCCCCCCCCCC(=O)OC[C@@H](O)COP(=O)([O-])OCC[N+](C)(C)C [LPC C16:0, Lysophosphatidylcholine (LPC) C16:0]			did not have an effect						
CCCCCCCCCCCCCCCCCCCCCCCCCC(=O)OC[C@@H](O)COP(=O)([O-])OCC[N+](C)(C)C [LPC C26:0, Lysophosphatidylcholine (LPC) C26:0]	did not reveal a notable positive signal; also recorded: little late apoptosis	remarkable dose dependent PS exposure; also recorded: showed exposure of phosphatidylserine (PS)	significantly increased	did not show significant morphological changes	significant increases	significant increases	20%	increased axon degeneration	
B1									significant increase; also recorded: dramatically increased
